According to the supplement of paper PMC10307832:

Key:
Experiment in all cases: relative viability (nuclei count vs DMSO), 5 days (fraction); higher = more cells survive
[1] = compound: C=C(c1ccc(C(=O)O)cc1)c1cc2c(cc1C)C(C)(C)CCC2(C)C [Bexarotene] + CCNC(=O)c1noc(-c2cc(C(C)C)c(O)cc2O)c1-c1ccc(CN2CCOCC2)cc1 [Luminespib] (partner 0.01 µM)
Summary of the method: (§1)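 A single step with final 0.05% Triton X-100, 1% formaldehyde and 1 ug/ml Hoechst fixed the cells and stained nuclei 5 days after treatment. Lung cancer cell lines in 1536-well plates had been treated by pin tool the day after seeding with one drug alone or a fixed anchor-drug dose plus five library-drug doses (not always all listed) in √10 steps, and nuclei were counted on 4× images. Relative viability is the ratio of nuclei in treated wells to nuclei in vehicle wells, taken as the median of duplicate plates.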

[2] = compound: C=C(c1ccc(C(=O)O)cc1)c1cc2c(cc1C)C(C)(C)CCC2(C)C [Bexarotene] + COc1cc2c(Oc3ccc(NC(=O)C4(C(=O)Nc5ccc(F)cc5)CC4)cc3F)ccnc2cc1OCCCN1CCOCC1 [Foretinib] (partner 0.25 µM)
Summary of the method: as §1

[3] = compound: C=C(c1ccc(C(=O)O)cc1)c1cc2c(cc1C)C(C)(C)CCC2(C)C [Bexarotene] + Cc1nc(Nc2ncc(C(=O)Nc3c(C)cccc3Cl)s2)cc(N2CCN(CCO)CC2)n1 [Dasatinib] (partner 0.075 µM)
Summary of the method: as §1

[4] = compound: C=C(c1ccc(C(=O)O)cc1)c1cc2c(cc1C)C(C)(C)CCC2(C)C [Bexarotene] + Nc1ncn([C@H]2C[C@H](O)[C@@H](CO)O2)c(=O)n1 [Decitabine] (partner 2 µM)
Summary of the method: as §1

Row | Cell Line | relative viability ([1]; first compound 0.08 µM) | relative viability ([1]; first compound 0.253 µM) | relative viability ([1]; first compound 0.8 µM) | relative viability ([1]; first compound 2.53 µM) | relative viability ([1]; first compound 8 µM) | relative viability ([2]; first compound 0.08 µM) | relative viability ([2]; first compound 0.253 µM) | relative viability ([2]; first compound 0.8 µM) | relative viability ([2]; first compound 2.53 µM) | relative viability ([2]; first compound 8 µM) | relative viability ([3]; first compound 0.08 µM) | relative viability ([3]; first compound 0.253 µM) | relative viability ([3]; first compound 0.8 µM) | relative viability ([3]; first compound 2.53 µM) | relative viability ([3]; first compound 8 µM) | relative viability ([4]; first compound 0.08 µM) | relative viability ([4]; first compound 0.253 µM) | relative viability ([4]; first compound 0.8 µM) | relative viability ([4]; first compound 2.53 µM) | relative viability ([4]; first compound 8 µM)
1 | HCC-15 | 0.192 | 0.314 | 0.321 | 0.353 | 0.231 | 1.09 | 1.07 | 1.05 | 1.05 | 0.996 | 0.695 | 0.741 | 0.648 | 0.647 | 0.683 | 0.762 | 0.72 | 0.611 | 0.588 | 0.568
2 | HCC-44 | 1.31 | 1.03 | 1.08 | 1.02 | 0.977 |  |  |  |  |  |  |  |  |  |  | 1.07 | 0.96 | 0.907 | 1.01 | 0.897
3 | HCC-78 |  |  |  |  |  | 0.54 | 0.499 | 0.547 | 0.523 | 0.468 | 0.402 | 0.264 | 0.278 | 0.33 | 0.363 | 0.735 | 0.705 | 0.673 | 0.528 | 0.749
4 | HCC-366 |  |  |  |  |  | 0.94 | 0.989 | 0.962 | 0.969 | 0.834 | 0.737 | 0.67 | 0.613 | 0.649 | 0.621 | 0.36 | 0.376 | 0.339 | 0.346 | 0.289
5 | HCC-827 | 0.525 | 0.78 | 0.655 | 0.808 | 0.473 | 1.07 | 1.02 | 0.992 | 1.09 | 0.976 | 0.284 | 0.465 | 0.419 | 0.35 | 0.344 | 0.396 | 0.311 | 0.33 | 0.298 | 0.335
6 | HOP-62 | 1.07 | 1.1 | 1.01 | 1.09 | 0.978 | 1.35 | 1.28 | 1.23 | 1.14 | 1.08 | 0.677 | 0.641 | 0.428 | 0.606 | 0.57 | 0.222 | 0.183 | 0.183 | 0.164 | 0.208
7 | IA-LM |  |  |  |  |  | 1.03 | 1.14 | 0.98 | 0.935 | 0.93 |  |  |  |  |  |  |  |  |  | 
8 | LC-2-ad | 1.01 | 0.978 | 1.04 | 1 | 1.1 | 0.976 | 1.01 | 0.969 | 0.982 | 0.893 | 0.696 | 0.602 | 0.575 | 0.497 | 0.625 | 0.805 | 0.85 | 0.853 | 0.772 | 0.813
9 | LCLC-97TM1 | 0.827 | 0.849 | 0.778 | 0.769 | 0.822 | 0.891 | 1 | 0.887 | 0.933 | 0.969 | 1.05 | 0.795 | 0.815 | 0.773 | 0.822 | 0.282 | 0.224 | 0.227 | 0.189 | 0.21
10 | LCLC-103H | 1.08 | 0.935 | 0.885 | 1.04 | 0.846 | 0.753 | 0.665 | 0.695 | 0.814 | 0.677 | 0.489 | 0.567 | 0.419 | 0.525 | 0.49 | 0.811 | 0.701 | 0.689 | 0.795 | 0.742
11 | LK-2 | 0.206 | 0.222 | 0.281 |  | 0.18 | 1.42 | 1.27 | 1.54 |  | 1.68 | 0.314 | 0.474 | 0.39 |  | 0.465 | 0.387 | 0.308 | 0.321 | 0.35 | 0.279
12 | LOU-NH91 | 0.364 | 0.318 | 0.346 | 0.287 | 0.268 | 0.88 | 0.89 | 0.84 | 0.878 | 0.786 | 0.584 | 0.613 | 0.467 | 0.521 | 0.502 | 0.854 | 0.841 | 0.833 | 0.773 | 0.717
13 | NCI-H1299 |  |  |  |  |  | 1.06 | 1.18 | 1.05 | 1.1 | 1.08 |  |  |  |  |  |  |  |  |  | 
14 | NCI-H1563 | 0.518 | 0.493 | 0.48 | 0.524 | 0.503 | 1.04 | 0.868 | 0.824 | 0.989 | 0.85 | 0.489 | 0.423 | 0.449 | 0.469 | 0.487 |  |  |  |  | 
15 | NCI-H1648 |  |  |  |  |  |  |  |  |  |  |  |  |  |  |  | 0.489 | 0.409 | 0.451 | 0.36 | 0.465
16 | NCI-H1703 |  |  |  |  |  | 0.393 | 0.377 | 0.411 | 0.399 | 0.42 |  |  |  |  |  |  |  |  |  | 
17 | NCI-H1792 | 0.519 | 0.406 | 0.49 | 0.361 | 0.286 |  |  |  |  |  | 0.82 | 0.769 | 0.764 | 0.786 | 0.689 | 0.548 | 0.527 | 0.493 | 0.531 | 0.425
18 | NCI-H2228 | 0.186 | 0.121 | 0.145 | 0.145 | 0.132 | 0.971 | 1.08 | 0.698 | 0.897 | 0.837 | 0.56 | 0.635 | 0.48 | 0.343 | 0.509 |  |  |  |  | 
